What was measured:
[1] = biological target: T1, Bromodomain-containing protein 4 (Homo sapiens, UniProt O60885); assay: Displacement of biotinylated ligand from recombinant His-tagged BRD4 bromodomain-1 (unknown origin) measured after 10 mins by TR-FRET assay
[2] = biological target: T2, CREB-binding protein/Histone acetyltransferase p300 (Homo sapiens, UniProt Q09472+Q92793); assay: Displacement of biotinylated ligand from recombinant His-tagged CBP/EP300 (unknown origin) measured after 10 mins by TR-FRET assay; assay type: protein assay
[3] = biological target: T2, CREB-binding protein/Histone acetyltransferase p300; assay: Inhibition of Halo-tagged histone H3.3 binding to CBP/EP300 (unknown origin) expressed in HEK293 cells measured after overnight incubation by luciferase reporter gene based BRET assay; assay type: cell-based
[4] = Apparent permeability of the compound across apical side to basolateral side in MDCK cells at 10 uM measured after 180 mins by LC-MS/MS analysis; assay type: ADME, cell-based, Canis lupus familiaris; conditions: dog
[5] = Oral bioavailability in mouse; assay type: ADME, organism-based; conditions: in vivo
[6] = Clearance in mouse; assay type: ADME, organism-based; conditions: in vivo
[7] = Drug metabolism in CD-1 mouse hepatocytes assessed as glucuronidation of compound at 1 uM up to 180 mins by LC-MS/MS analysis; assay type: ADME, cell-based, Hepatocyte; conditions: 3 h
CREB-binding protein [8] = biological target: T3, CREB-binding protein (Homo sapiens, UniProt Q92793); assay: Inhibition of Halo-tagged histone H3.3 binding to NanoLuc luciferase conjugated CBP (unknown origin) expressed in HEK293 cells after overnight incubation by BRET assay; assay type: cell-based
T3 sequence (Q92793 whole entry): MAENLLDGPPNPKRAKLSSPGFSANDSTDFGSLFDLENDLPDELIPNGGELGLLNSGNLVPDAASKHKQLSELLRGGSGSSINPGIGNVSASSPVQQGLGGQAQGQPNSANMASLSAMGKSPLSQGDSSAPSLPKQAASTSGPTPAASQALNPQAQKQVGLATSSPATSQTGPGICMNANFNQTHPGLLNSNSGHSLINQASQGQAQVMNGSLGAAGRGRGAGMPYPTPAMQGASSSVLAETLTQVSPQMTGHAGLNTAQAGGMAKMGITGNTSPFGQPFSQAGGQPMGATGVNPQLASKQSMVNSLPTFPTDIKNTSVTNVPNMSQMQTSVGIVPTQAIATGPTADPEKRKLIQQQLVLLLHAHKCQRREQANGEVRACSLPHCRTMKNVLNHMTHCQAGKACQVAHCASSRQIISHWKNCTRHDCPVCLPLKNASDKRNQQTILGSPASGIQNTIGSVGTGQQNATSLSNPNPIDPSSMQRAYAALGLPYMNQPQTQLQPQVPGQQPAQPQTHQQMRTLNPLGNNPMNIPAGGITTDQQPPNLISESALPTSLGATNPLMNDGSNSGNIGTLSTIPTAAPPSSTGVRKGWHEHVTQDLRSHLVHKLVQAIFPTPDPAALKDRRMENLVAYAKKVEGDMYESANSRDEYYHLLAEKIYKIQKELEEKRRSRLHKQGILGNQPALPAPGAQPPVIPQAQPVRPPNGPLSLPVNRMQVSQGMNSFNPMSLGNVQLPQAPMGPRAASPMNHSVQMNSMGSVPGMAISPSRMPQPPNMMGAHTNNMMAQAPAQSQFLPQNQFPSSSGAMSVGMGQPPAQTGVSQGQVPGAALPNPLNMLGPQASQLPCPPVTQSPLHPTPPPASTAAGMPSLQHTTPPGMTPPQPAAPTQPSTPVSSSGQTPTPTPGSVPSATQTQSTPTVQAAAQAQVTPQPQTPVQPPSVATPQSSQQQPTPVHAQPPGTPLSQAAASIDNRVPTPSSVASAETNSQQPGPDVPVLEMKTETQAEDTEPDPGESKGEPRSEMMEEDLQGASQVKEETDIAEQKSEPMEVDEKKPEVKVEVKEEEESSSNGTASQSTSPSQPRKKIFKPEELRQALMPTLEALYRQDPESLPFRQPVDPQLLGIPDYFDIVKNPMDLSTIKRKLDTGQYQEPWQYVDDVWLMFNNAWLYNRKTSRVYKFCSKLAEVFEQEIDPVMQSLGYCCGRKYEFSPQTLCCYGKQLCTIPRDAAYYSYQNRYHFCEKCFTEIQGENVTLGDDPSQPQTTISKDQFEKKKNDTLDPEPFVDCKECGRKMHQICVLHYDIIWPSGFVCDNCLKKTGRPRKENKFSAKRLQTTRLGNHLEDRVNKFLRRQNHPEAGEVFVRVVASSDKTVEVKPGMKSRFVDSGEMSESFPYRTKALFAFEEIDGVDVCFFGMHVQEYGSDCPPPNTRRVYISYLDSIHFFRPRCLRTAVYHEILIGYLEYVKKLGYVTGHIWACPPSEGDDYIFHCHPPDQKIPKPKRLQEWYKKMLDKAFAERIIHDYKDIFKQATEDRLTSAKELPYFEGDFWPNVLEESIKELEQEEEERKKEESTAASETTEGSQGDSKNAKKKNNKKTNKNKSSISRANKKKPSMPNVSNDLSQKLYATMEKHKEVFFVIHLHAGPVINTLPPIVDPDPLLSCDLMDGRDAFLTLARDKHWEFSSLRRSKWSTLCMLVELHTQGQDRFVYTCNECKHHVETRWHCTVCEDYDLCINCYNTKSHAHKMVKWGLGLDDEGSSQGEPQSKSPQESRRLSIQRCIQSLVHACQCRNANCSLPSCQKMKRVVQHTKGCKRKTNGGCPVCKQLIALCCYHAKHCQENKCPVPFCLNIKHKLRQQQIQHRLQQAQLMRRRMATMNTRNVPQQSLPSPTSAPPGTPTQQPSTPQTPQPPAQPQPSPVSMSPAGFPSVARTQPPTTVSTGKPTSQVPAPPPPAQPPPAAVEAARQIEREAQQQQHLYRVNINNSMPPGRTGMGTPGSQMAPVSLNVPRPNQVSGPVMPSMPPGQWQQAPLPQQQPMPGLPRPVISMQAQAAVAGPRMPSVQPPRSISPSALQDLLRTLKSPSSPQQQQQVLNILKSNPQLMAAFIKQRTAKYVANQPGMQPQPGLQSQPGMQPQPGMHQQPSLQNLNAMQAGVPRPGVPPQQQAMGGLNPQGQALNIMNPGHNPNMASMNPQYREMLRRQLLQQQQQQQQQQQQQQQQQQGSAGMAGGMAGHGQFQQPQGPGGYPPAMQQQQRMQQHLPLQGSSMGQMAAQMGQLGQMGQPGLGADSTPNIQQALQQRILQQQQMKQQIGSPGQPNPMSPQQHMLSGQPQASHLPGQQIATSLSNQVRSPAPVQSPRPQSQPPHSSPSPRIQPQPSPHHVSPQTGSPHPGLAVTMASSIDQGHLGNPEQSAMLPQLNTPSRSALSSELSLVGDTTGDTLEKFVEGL

CREB-binding protein [9] = biological target: T3, CREB-binding protein; assay: Displacement of biotinylated ligand from CBP (unknown origin) by TR-FRET assay
[10] = biological target: T2, CREB-binding protein/Histone acetyltransferase p300; assay: Inhibition of CBP/EP300 (unknown origin) assessed as reduction in MYC expression by cell based assay
[11] = biological target: T1, Bromodomain-containing protein 4; assay: Displacement of biotinylated ligand from BRD4 bromodomain-1 (unknown origin) by TR-FRET assay
[12] = Drug metabolism in human liver microsomes assessed as phenyl ring oxidation at 10 uM up to 1 hr in presence of NADPH by LC-MS analysis; assay type: ADME
[13] = Drug metabolism in human liver microsomes assessed as cleavage of cyclopropylmethyl moiety at 10 uM up to 1 hr in presence of NADPH by LC-MS analysis; assay type: ADME
[14] = Drug metabolism in mouse liver microsomes assessed as cleavage of cyclopropylmethyl moiety at 10 uM up to 1 hr in presence of NADPH by LC-MS analysis; assay type: ADME
[15] = Drug metabolism in mouse liver microsomes assessed as phenyl ring oxidation at 10 uM up to 1 hr in presence of NADPH by LC-MS analysis; assay type: ADME

Compound	IC50 [1] [µM]	IC50 [2] [µM]	other results
CC(=O)N1CCc2[nH]nc(Nc3cccc(C(F)(F)F)c3)c2C1	18	0.1	–
CC(=O)N1CCc2[nH]nc(Nc3cccc(C)c3)c2C1	> 20	0.34	–
CCCn1nc(Nc2cccc(C)c2)c2c1CCN(C(C)=O)C2	14	0.07	–
CC(=O)N1CCc2c(c(Nc3cccc(C)c3)nn2CCO)C1	> 20	–	–
COCCn1nc(Nc2cccc(C)c2)c2c1CCN(C(C)=O)C2	> 20	–	–
CC(=O)N1CCc2[nH]nc(Nc3ccc(C)cc3)c2C1	> 20	0.3	–
COc1cccc(Nc2n[nH]c3c2CN(C(C)=O)CC3)c1	> 20	0.34	–
CCCC(=O)N1CCc2[nH]nc(Nc3cccc(C)c3)c2C1	> 20	> 5	–
Cc1cccc(Nc2n[nH]c3c2CN(C(=O)C(F)(F)F)CC3)c1	> 20	4.3	–
COCCNC(=O)c1cccc(Nc2nn(CC3CC3)c3c2CN(C(C)=O)CC3)c1	> 20	–	–
CC(=O)N1CCc2c(c(Nc3cccc(C(=O)NC(C)C)c3)nn2CC2CC2)C1	–	0.03	Papp A→B at 3 h, 10 µM [4]: 2.4 ×10⁻⁶ cm/s; IC50 [3]: 0.96 µM; bioavailability [5]: 5%; clearance [6]: 43 mL/min/kg
CC(=O)N1CCc2[nH]nc(Nc3ccccc3C)c2C1	> 20	1.2	–
CCc1ccc(Nc2n[nH]c3c2CN(C(C)=O)CC3)cc1	> 20	0.25	–
CC(=O)N1CCc2c(c(Nc3cccc(C)c3)nn2CC2CC2)C1	13	–	–
CC(=O)N1CCc2[nH]nc(Nc3ccccc3F)c2C1	> 20	1.4	–
CC(=O)N1CCc2[nH]nc(Nc3cccc(OC(F)F)c3)c2C1	> 20	0.16	–
COC(=O)c1cccc(Nc2n[nH]c3c2CN(C(C)=O)CC3)c1	18	0.11	–
Cc1cccc(Nc2n[nH]c3c2CN(C(=O)C2CC2)CC3)c1	> 20	4.1	–
CCC(=O)N1CCc2[nH]nc(Nc3cccc(C)c3)c2C1	> 20	1.4	–
CCCOc1ccc(CCc2nc3cc(-c4c(C)noc4C)ccc3n2CCN2CCOCC2)cc1	–	–	IC50 (CREB-binding protein [8]): > 10 µM; IC50 (CREB-binding protein [9]): 0.19 µM; EC50 [10]: 6.6 µM; IC50 [11]: 2.9 µM
CC(=O)N1CCc2c(c(Nc3cccc(-c4ccccn4)c3)nn2CC2CC2)C1	–	0.03	Papp A→B at 3 h, 10 µM [4]: 15 ×10⁻⁶ cm/s; IC50 [3]: 0.56 µM
CC(=O)N1CCc2[nH]nc(Nc3ccc(F)cc3)c2C1	> 20	0.91	–
COc1ccc(CCc2nc3cc(-c4c(C)noc4C)ccc3n2C[C@H](C)N2CCOCC2)cc1Cl	–	–	IC50 [11]: 3.2 µM
CC(=O)N1CCc2[nH]nc(Nc3cccc(F)c3)c2C1	> 20	0.43	–
CCC(=O)N1CCOc2c(cc(-c3ccc(OC)c(OC)c3)cc2OC[C@H]2CCCN(C)C2)C1	–	–	IC50 (CREB-binding protein [8]): > 10 µM; IC50 (CREB-binding protein [9]): 0.44 µM; EC50 [10]: > 10 µM
CCc1cccc(Nc2n[nH]c3c2CN(C(C)=O)CC3)c1	> 20	0.19	–
CC(=O)N1CCc2c(c(Nc3cccc(C)c3)nn2C)C1	> 20	–	–
Cc1cccc(Nc2n[nH]c3c2CN(S(C)(=O)=O)CC3)c1	> 20	> 5	–
COC(=O)c1ccc(Nc2n[nH]c3c2CN(C(C)=O)CC3)cc1	> 20	0.14	–

Further molecules by falling IC50 [1], results first:

IC50 [1] [µM]	IC50 [2] [µM]	Compound	other results
11	0.04	CC(=O)N1CCc2c(c(Nc3ccc(-c4cnn(C)c4)cc3)nn2C2COC2)C1	IC50 [3]: 1.2 µM
11	–	CC(=O)N1CCc2c(c(Nc3ccc(-c4cnn(C)c4)cc3)nn2C2CCOC2)C1 (single isomer, unassigned; 58)	–
9.8	0.18	CC(=O)N1CCc2c(c(Nc3cccc(C)c3)nn2CCC2CC2)C1	–
8.6	–	CC(=O)N1CCc2c(c(Nc3cccc(-c4cnoc4)c3)nn2CC2CC2)C1	–
8.5	–	CC(=O)N1CCc2c(c(Nc3ccc(-c4cnn(C)c4)cc3)nn2C2CCOC2)C1 (single isomer, unassigned; 57)	–
7.7	0.04	CCNC(=O)c1cccc(Nc2nn(CC3CC3)c3c2CN(C(C)=O)CC3)c1	IC50 [3]: 1.5 µM
7.3	–	CC(=O)N1CCc2c(c(Nc3cccc(C)c3)nn2Cc2ccccn2)C1	–
6.4	–	CC(=O)N1CCc2c(c(Nc3ccc(-c4cnn(C)c4)cc3)nn2CC2CC2)C1	Drug metabolism [7]: Metabolite_Detected; clearance [6]: 118 mL/min/kg
5.9	–	CC(=O)N1CCc2c(c(Nc3cccc(C)c3)nn2Cc2ccncc2)C1	–
5.8	0.03	CCCNC(=O)c1cccc(Nc2nn(CC3CC3)c3c2CN(C(C)=O)CC3)c1	IC50 [3]: 1.3 µM
5.6	–	CC(=O)N1CCc2c(c(Nc3cccc(C)c3)nn2Cc2cccnc2)C1	–
4.6	–	CC(=O)N1CCc2c(c(Nc3cccc(-c4ccccc4)c3)nn2CC2CC2)C1	Papp A→B at 3 h, 10 µM [4]: 26 ×10⁻⁶ cm/s; IC50 [3]: 2.5 µM
4.6	–	CC(=O)N1CCc2c(c(Nc3cccc(-c4cn[nH]c4)c3)nn2CC2CC2)C1	Papp A→B at 3 h, 10 µM [4]: 7.3 ×10⁻⁶ cm/s
4.2	–	CC(=O)N1CCc2c(c(Nc3cccc(-c4cnn(C)c4)c3)nn2CC2CC2)C1	Drug metabolism [12]: Metabolite_Detected; Drug metabolism [13]: Metabolite_Detected; Drug metabolism [14]: Metabolite_Detected; Drug metabolism [15]: Metabolite_Detected; Papp A→B at 3 h, 10 µM [4]: 18 ×10⁻⁶ cm/s
4	–	CC(=O)N1CCc2c(c(Nc3cccc(-c4cccnc4)c3)nn2CC2CC2)C1	Papp A→B at 3 h, 10 µM [4]: 24 ×10⁻⁶ cm/s
3.8	–	CC(=O)N1CCc2c(c(Nc3cccc(-c4ccn[nH]4)c3)nn2CC2CC2)C1	Papp A→B at 3 h, 10 µM [4]: 6.3 ×10⁻⁶ cm/s
3.7	–	CC(=O)N1CCc2c(c(Nc3cccc(-c4ccnn4C)c3)nn2CC2CC2)C1	Papp A→B at 3 h, 10 µM [4]: 15 ×10⁻⁶ cm/s
0.87	–	CC(=O)N1CCc2c(c(Nc3cccc(-c4ccncc4)c3)nn2CC2CC2)C1	Papp A→B at 3 h, 10 µM [4]: 20 ×10⁻⁶ cm/s

— ChEMBL document CHEMBL3864133, “Discovery of a Potent and Selective in Vivo Probe (GNE-272) for the Bromodomains of CBP/EP300” (J Med Chem, 2016)
